Assay results published in publication PMC5880951, “Pentocin MQ1: A Novel, Broad-Spectrum, Pore-Forming Bacteriocin From Lactobacillus pentosus CS2 With Quorum Sensing Regulatory Mechanism and Biopreservative Potential” (Frontiers in Microbiology, 2018).

Legend:
[1] = test system: Micrococcus luteus ATCC 10240; assay: Membrane permeabilization (pore formation), SYTOX green; format: cell-based; conditions: 5 μM SYTOX green, pentocin MQ1 at 5 X MIC, nisin as positive control, Real-Time PCR read-out, triplicates
Protocol: Pore formation assay was done to understand the mechanism of action of pentocinMQ1. M. luteus was grown in Mueller-Hinton broth until OD600nm = 0.45 after which 5 μM SYTOX green dye (Invitrogen, USA) was added. Ninety microliters of stained bacteria was added to MicroAmp Fast Optical 96-well reaction plate (Applied Biosystems, Life Technologies, USA). After a stable line base was attained, 10 μl of pentocin MQ1 (5 X MIC) was added to the stained bacteria. Sodium phosphate buffer (5 mM) and nisin (Sigma-Aldrich, USA) were added to stained bacteria in different wells to serve as negative and positive controls, respectively. Experiments were done in triplicates. Fluorescence as a result of binding of SYTOX green to leaked intracellular DNA was monitored using Real-Time PCR (Applied Biosystems, USA).

M. luteus = conditions: within 30 min; ref Barbour et al., 2016; cited from earlier work
Excerpt: The two main modes of action of LAB bacteriocins against Gram-positive bacteria are pore formation and inhibition of cell wall synthesis (Cotter et al., [2013]). […] This implies that pore formation is a more rapid killing mechanism.

Bacillus spp. = conditions: ref Mota-Meira et al., 2000; cited from earlier work
Protocol: (§1) Pentocin MQ1 was strongly inhibitory against L. monocytogenes NCTC 10890, M. luteus ATCC 10240, and B. cereus ATCC14579 at micromolar concentrations. High activity at low concentration is a desirable property of natural biopreservatives (Bali et al., [2016]). MIC-values for nisin A against Micrococcus spp. and Bacillus spp. (Mota-Meira et al., [2000]) are lower than that of pentocin MQ1. […] After 120 min ...

Micrococcus spp. = conditions: ref Mota-Meira et al., 2000; cited from earlier work
Protocol: as §1

nisin
fluorescence intensity (SYTOX green binding to leaked intracellular DNA) [1]: higher fluorescence intensity | increase in fluorescence (M. luteus): caused an increase in fluorescence intensity

nisin A
MIC compared with pentocin MQ1 (Bacillus spp.): lower | MIC compared with pentocin MQ1 (Micrococcus spp.): lower
